Source: patent US9828339B2, “Biphenyl derivatives and methods for preparing same” (DONG-A ST CO., LTD, priority 2013, dated 2017)

Target: human muscarinic M3 receptor (Homo sapiens (Human), UniProt P20309)
Experiment: Binding assay on human muscarinic M3 receptor ([3H]-methyl scopolamine displacement)
Details: membranes overexpressing human M3 receptor, Ki from IC50 by Cheng-Prusoff, read-out: Binding Affinity to M3 Receptor, Ki
Procedure: [Experimental Example 1] Binding Assay on Human Muscarinic M3 Receptor
Cell membrane proteins (Perkin Elmer) wherein human muscarinic M3 receptor was overexpressed, [^3H]-methyl scopolamine and test compounds in various concentration were cultured in 0.2 ml of Tris-HCl buffer at 25° C. for 120 minutes. The same was filtered under suction through glass fiber filter (Whatman GF/B), and then the filter was washed 5 times with 1 ml of Tris-HCl buffer. The radioactivity of [^3H]-methyl scopolamine adsorbed on the filter was measured by a liquid scintillation counter. Non-specific binding was evaluated under existence of 5 μM of atropine. Affinity of the compound of the present invention to muscarinic M3 receptor was calculated as the dissociation constant (Ki), which can be calculated from concentration (IC50) of test compounds inhibiting 50% of binding of [^3H]-methyl scopolamine (i.e. labeled ligand) according to Cheng and Prusoff [Cheng and Prusoff, Biochem. Pharmacol., 22, 3099, 1973].

human muscarinic M3 receptor, sequence (P20309 whole entry): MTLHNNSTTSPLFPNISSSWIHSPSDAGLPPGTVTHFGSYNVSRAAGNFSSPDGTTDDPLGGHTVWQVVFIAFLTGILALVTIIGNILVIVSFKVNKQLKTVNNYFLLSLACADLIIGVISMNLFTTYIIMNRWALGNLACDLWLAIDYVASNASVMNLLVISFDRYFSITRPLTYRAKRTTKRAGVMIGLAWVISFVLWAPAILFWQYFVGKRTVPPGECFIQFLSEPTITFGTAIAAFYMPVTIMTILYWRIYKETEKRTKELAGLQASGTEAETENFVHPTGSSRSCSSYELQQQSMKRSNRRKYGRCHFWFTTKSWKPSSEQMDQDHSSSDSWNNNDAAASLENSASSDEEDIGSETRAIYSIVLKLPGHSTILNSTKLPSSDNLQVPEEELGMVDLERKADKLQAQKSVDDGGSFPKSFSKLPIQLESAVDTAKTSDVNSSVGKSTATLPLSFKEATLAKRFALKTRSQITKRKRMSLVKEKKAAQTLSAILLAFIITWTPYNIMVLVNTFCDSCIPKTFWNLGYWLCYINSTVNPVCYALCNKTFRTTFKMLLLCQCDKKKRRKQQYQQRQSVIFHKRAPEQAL

SMILES	Ki [nM]
CN1CCCC1CCOC(=O)Nc1ccccc1-c1ccccc1Cl (stereo not shown) [Example 35, 2-(1-methylpyrrolidin-2-yl)ethyl(2′-chloro-[1,1′-biphenyl]-2-yl)carbamate]	435
COc1ccc(NC(=O)OCCC2CCCN2C)c(-c2cccc(Cl)c2)c1 (stereo not shown) [Example 63, 2-(1-methylpyrrolidin-2-yl)ethyl(3′-chloro-5-methoxy-[1,1′-biphenyl]-2-yl)carbamate]	58.1
CCOc1cccc(-c2ccccc2NC(=O)OCCC2CCCN2C)c1 (stereo not shown) [Example 16, 2-(1-methylpyrrolidin-2-yl)ethyl(3′-ethoxy-[1,1′-biphenyl]-2-yl)carbamate]	1060
CN1CCCC1CCOC(=O)Nc1ccc(F)cc1-c1cc(F)cc(F)c1 (stereo not shown) [Example 20, 2-(1-methylpyrrolidin-2-yl)ethyl(3′,5,5′-trifluoro-[1,1′-biphenyl]-2-yl)carbamate]	20.7
Cc1cc(-c2ccccc2NC(=O)OCCC2CCCN2C)cc(C(C)(C)C)c1 (stereo not shown) [Example 37, 2-(1-methylpyrrolidin-2-yl)ethyl(3′-tert-butyl-5′-methyl-[1,1′-biphenyl]-2-yl)carbamate]	> 1000
O=C(Nc1ccccc1-c1cc(F)cc(F)c1)OC[C@H]1CCNC1 [Example 81, (S)-pyrrolidin-3-ylmethyl-(3′,5′-difluoro-[1,1′-biphenyl]-2-yl)carbamate]	30.4
O=C(Nc1ccc(F)cc1-c1ccccc1)OC[C@H]1CCNC1 [Example 82, (S)-pyrrolidin-3-ylmethyl-(5-fluoro-[1,1′-biphenyl]-2-yl)carbamate]	18.9
CN1CCC[C@H]1COC(=O)Nc1ccc(F)cc1-c1cc(Cl)cc(C(F)(F)F)c1 [Example 215, (S)-(1-methylpyrrolidin-2-yl)methyl(3′-chloro-5-fluoro-5′-(trifluoromethyl)-[1,1′-biphenyl]-2-yl)carbamate]	> 1000
COc1ccc(-c2ccccc2)c(NC(=O)OCCC2CCCN2C)c1 (stereo not shown) [Example 25, 2-(1-methylpyrrolidin-2-yl)ethyl(4-methoxy-[1,1′-biphenyl]-2-yl)carbamate]	115
CN1CCCC1CCOC(=O)Nc1ccc(C(F)(F)F)cc1-c1cccc(Cl)c1 (stereo not shown) [Example 51, 2-(1-Methylpyrrolidin-2-yl)ethyl(3′-chloro-5-(trifluoromethyl)-[1,1′-biphenyl]-2-yl)carbamate]	101
CN1CC[C@@H](COC(=O)Nc2ccccc2-c2ccc(C=O)c(F)c2)C1 [Example 74, (R)-(1-methylpyrrolidin-3-yl)methyl (3′-fluoro-4′-formyl-[1,1′-biphenyl]-2-yl)carbamate]	> 1000
CN1CCCC1CCOC(=O)Nc1ccc(C(F)(F)F)cc1-c1cc(F)cc(F)c1 (stereo not shown) [Example 50, 2-(1-Methylpyrrolidin-2-yl)ethyl (3′,5′-difluoro-5-(trifluoromethyl)-[1,1′-biphenyl]-2-yl)carbamate]	> 1000
CN1CCCC1CCOC(=O)Nc1cc(F)ccc1-c1ccccc1 (stereo not shown) [Example 23, 2-(1-methylpyrrolidin-2-yl)ethyl(4-fluoro-[1,1′-biphenyl]-2-yl)carbamate]	6.4
CN1CCCC1CCOC(=O)Nc1ccc(Cl)cc1-c1cc(F)cc(Cl)c1 (stereo not shown) [Example 72, 2-(1-Methylpyrrolidin-2-yl)ethyl (3′,5-dichloro-5′-fluoro-[1,1′-biphenyl]-2-yl)carbamate]	58.8
Cc1ccc(NC(=O)OCCC2CCCN2C)c(-c2cccc(F)c2)c1 (stereo not shown) [Example 27, 2-(1-methylpyrrolidin-2-yl)ethyl(3′-fluoro-5-methyl-[1,1′-biphenyl]-2-yl)carbamate]	56.7
Cc1ccc(-c2ccccc2NC(=O)OCCC2CCCN2C)cc1F (stereo not shown) [Example 14, 2-(1-methylpyrrolidin-2-yl)ethyl((3′-fluoro-4′-methyl)-[1,1′-biphenyl]-2-yl)carbamate]	12.4
Cc1cccc(-c2ccccc2NC(=O)OC[C@H]2CCCN2C)c1 [Example 110, (R)-(1-methylpyrrolidin-2-yl)-methyl (3′-methyl-[1,1′-biphenyl]-2-yl)carbamate]	9.13
Cc1ccc(NC(=O)OC[C@@H]2CCNC2)c(-c2cccc(F)c2)c1 [Example 87, (R)-pyrrolidin-3-ylmethyl (3′-fluoro-5-methyl-[1,1′-biphenyl]-2-yl)carbamate]	94.4
CN1CCCC1CCOC(=O)Nc1ccc(O)cc1-c1cc(Cl)cc(Cl)c1 (stereo not shown) [Example 76, 2-(1-methylpyrrolidin-2-yl)ethyl (3′,5′-dichloro-5-hydroxy-[1,1′-biphenyl]-2-yl)carbamate]	> 1000
CN1CC[C@H](COC(=O)Nc2ccccc2-c2cc(F)cc(F)c2)C1 [Example 92, (S)-(1-methylpyrrolidin-3-yl)methyl (3′,5′-difluoro-[1,1′-biphenyl]-2-yl)carbamate]	10.7
CN1CCC[C@H]1COC(=O)Nc1ccc(F)cc1-c1ccc(C(C)(C)C)cc1 [Example 209, (S)-(1-methylpyrrolidin-2-yl)methyl (4′-(tert-butyl)-5-fluoro-[1,1′-biphenyl]-2-yl)carbamate]	> 1000
O=C(Nc1ccccc1-c1ccc(F)cc1)OCC1CCCN1 (stereo in doubt) [Example 88, (S)-pyrrolidin-2-ylmethyl (4′-fluoro-[1,1′-biphenyl]-2-yl)carbamate]	99.7

Continued, values first:

Ki [nM]	SMILES
241	CN1CCC[C@H]1COC(=O)Nc1ccc(F)cc1-c1cccc(O)c1 [Example 179, (S)-(1-methylpyrrolidin-2-yl)methyl(3′-hydroxy-5-fluoro-[1,1′-biphenyl]-2-yl)carbamate]
0.61	CN1CCC[C@H]1COC(=O)Nc1ccc(F)cc1-c1cccc(Cl)c1 [Example 174, (S)-(1-methylpyrrolidin-2-yl)methyl(3′-chloro-5-fluoro-[1,1′-biphenyl]-2-yl)carbamate]
120	CN1CC[C@@H](COC(=O)Nc2ccccc2-c2cccc(F)c2F)C1 [Example 158, (R)-(1-methylpyrrolidin-3-yl)methyl(2′,3′-difluoro-[1,1′-biphenyl]-2-yl)carbamate]
2.03	CN1CCC[C@H]1COC(=O)Nc1ccc(F)cc1-c1ccccc1 [Example 200, (S)-(1-methylpyrrolidin-2-yl)methyl(5-fluoro-[1,1′-biphenyl]-2-yl)carbamate]
27	CN1CC[C@@H](COC(=O)Nc2ccccc2-c2cccc(O)c2)C1 [Example 137, (R)-(1-methylpyrrolidin-3-yl)methyl(3′-hydroxy-[1,1′-biphenyl]-2-yl)carbamate]
22.9	CN1CCC[C@H]1COC(=O)Nc1ccccc1-c1cccc(O)c1 [Example 168, (S)-(1-methylpyrrolidin-2-yl)methyl(3′-hydroxy-[1,1′-biphenyl]-2-yl)carbamate]
5.34	CN1CCC[C@H]1COC(=O)Nc1ccccc1-c1ccc(F)c(F)c1 [Example 162, (S)-(1-methylpyrrolidin-2-yl)methyl(3′,4′-difluoro-[1,1′-biphenyl]-2-yl)carbamate]
69.4	CN1CC[C@H](COC(=O)Nc2ccc(F)cc2-c2ccc(Cl)cc2)C1 [Example 127, (S)-(1-methylpyrrolidin-3-yl)methyl(4′-chloro-5-fluoro-[1,1′-biphenyl]-2-yl)carbamate]
> 1000	CN1CC[C@@H](COC(=O)Nc2ccccc2-c2cc(Cl)cc(C(F)(F)F)c2)C1 [Example 138, (R)-(1-methylpyrrolidin-3-yl)methyl(3′-chloro-5′-(trifluoromethyl)-[1,1′-biphenyl]-2-yl)carbamate]
53	CN1CCC[C@H]1COC(=O)Nc1ccc(F)cc1-c1cccc(N)c1 [Example 213, (S)-(1-methylpyrrolidin-2-yl)methyl (3′-amino-5-fluoro-[1,1′-biphenyl]-2-yl)carbamate]
1.92	CN1CC[C@@H](COC(=O)Nc2ccccc2-c2cccc(F)c2)C1 [Example 113, (R)-(1-methylpyrrolidin-3-yl)-methyl (3′-fluoro-[1,1′-biphenyl]-2-yl)carbamate]
> 1000	CN1CC[C@@H](COC(=O)Nc2ccccc2-c2cccc(C(N)=O)c2)C1 [Example 153, (R)-(1-methylpyrrolidin-3-yl)methyl(3′-carbamoyl-[1,1′-biphenyl]-2-yl)carbamate]
14.2	CCN1CC[C@@H](COC(=O)Nc2ccccc2-c2cccc(C)c2)C1 [Example 104, (R)-(1-ethylpyrrolidin-3-yl)methyl (3′-methyl-[1,1′-biphenyl]-2-yl)carbamate]
> 1000	CN1CC[C@@H](COC(=O)Nc2ccc(F)cc2-c2cc(Cl)cc(C(F)(F)F)c2)C1 [Example 140, (R)-(1-methylpyrrolidin-3-yl)methyl(3′-chloro-5-fluoro-5′-(trifluoromethyl)-[1,1′-biphenyl]-2-yl)carbamate]
12.9	CCN1CC[C@@H](COC(=O)Nc2ccccc2-c2ccccc2)C1 [Example 102, (R)-(1-ethylpyrrolidin-3-yl)methyl [1,1′-biphenyl]-2-ylcarbamate]
67.3	CN1CCC[C@H]1COC(=O)Nc1ccccc1-c1ccc(Cl)cc1Cl [Example 167, (S)-(1-methylpyrrolidin-2-yl)methyl(2′,4′-dichloro-[1,1′-biphenyl]-2-yl)carbamate]
87.8	Cc1cc(C)cc(-c2cc(F)ccc2NC(=O)OC[C@H]2CCN(C)C2)c1 [Example 122, (S)-(1-methylpyrrolidin-3-yl)methyl(5-fluoro-3′,5′-dimethyl-[1,1′-biphenyl]-2-yl)carbamate]
30.8	Cc1cc(C)cc(-c2ccccc2NC(=O)OC[C@@H]2CCN(C)C2)c1 [Example 191, (R)-(1-methylpyrrolidin-3-yl)-methyl (3′,5′-dimethyl-[1,1′-biphenyl]-2-yl)carbamate]
